Experimental data published in US9696323B2, “Biomarkers for chagas disease related cardiomyopathy” (THE BOARD OF REGENTS OF THE UNIVERSITY OF TEXAS SYSTEM, priority 2013, dated 2017).

Experiments:
T. cruzi [1] = test: Oxidative modification (carbonylation) of plasma proteins in chagasic rats treated with PBN and/or BZ; type: in vivo, rat; settings: chagasic rat plasma; 5 of 11 carbonylated proteins (CFB, CFH, SERPRINA1, SERPINC1, PLG)
Excerpt: Certain embodiments include biomarkers identified in a previous study. Parasite persistence and oxidative damage in the heart are known to be of pathological significance during Chagas disease (Zacks et al., (2005) An Acad Bras Cienc, 77, 695-715; Gupta et al., (2009) Interdiscip Perspect Infect Dis, 2009, 190354). […] In the previous study the inventors identified 92 proteins that were differentially expressed or oxidized in chagasic plasma. Functional analysis allocated a majority of these proteins to inflammation/immunity and lipid metabolism categories, and to molecular pathways associated with cardiovascular dysfunction, e.g., myocardial infarction, hypertrophy, and fibrosis, and pulmonary embolism and hypertension. Some proteins in chagasic rats treated with PBN and/or BZ were allocated to curative pathways (immune regulation and cardiac remodeling). The 2D-GE results were validated by Western blotting. […] Increased plasma levels of GSN, MYL2, and VIM were directly correlated with the severity of cardiac disease in human chagasic patients. […] These findings have utility in diagnosing disease severity and designing suitable therapy for management of human chagasic patients. […]

T. cruzi [2] = settings: infected rats; BZ parasite-induced, PBN oxidative stress-induced (Wen et al. 2006, 2010); cited from earlier work
[3] = 2D-GE plasma proteome profile (differential protein expression) of T. cruzi-infected rats treated with PBN and/or BZ; type: in vivo, rat; settings: plasma
Excerpt: Certain embodiments include biomarkers identified in a previous study. Parasite persistence and oxidative damage in the heart are known to be of pathological significance during Chagas disease (Zacks et al., (2005) An Acad Bras Cienc, 77, 695-715; Gupta et al., (2009) Interdiscip Perspect Infect Dis, 2009, 190354). […] In the previous study the inventors identified 92 proteins that were differentially expressed or oxidized in chagasic plasma. Functional analysis allocated a majority of these proteins to inflammation/immunity and lipid metabolism categories, and to molecular pathways associated with cardiovascular dysfunction, e.g., myocardial infarction, hypertrophy, and fibrosis, and pulmonary embolism and hypertension. Some proteins in chagasic rats treated with PBN and/or BZ were allocated to curative pathways (immune regulation and cardiac remodeling). The 2D-GE results were validated by Western blotting. […] Increased plasma levels of GSN, MYL2, and VIM were directly correlated with the severity of cardiac disease in human chagasic patients. […] These findings have utility in diagnosing disease severity and designing suitable therapy for management of human chagasic patients.
Ingenuity Pathway Analysis (IPA) is a highly curated and comprehensive software used for the integration of proteins into networks and pathways with biological meaning (Thomas and Bonchev, (2010). Hum Genomics, 4, 353-360). Network analysis of the plasma proteome profile of chagasic rats identified four major sub-networks linked to host response to T. cruzi infection and disease development (Table V). The maximal numbers of the differentially expressed plasma proteins (19 proteins) in chagasic rats were associated with antigen presentation and inflammatory response category (Table V) and indicators of persistent inflammation, known to be of pathological significance in Chagas disease (Dhiman et al., (2009) Clinical and Vaccine Immunology, 16, 660-666; Tanowitz et al., (2009) Prog Cardiovasc Dis, 51, 524-539; Junqueira et al., (2010) Expert Rev Mol Med, 12, e29). Following functional analysis of the inflammation-associated proteins, 12 proteins (APOA1, APOE, C3, CFB, CFH, FGB, GSN, KRT10, PLG, SCG2, SERPINA1, and SERPINC1) were identified as being involved in immune cell trafficking and cell movement of leukocytes, granulocytes, phagocytes, neutrophils, and dendritic and antigen presenting cells. Some of the differentially expressed proteins in inflammation category were associated with activation (APOE, C3, CFH, GC and PLG), chemotaxis (C3, SCG2, SERPINA1, SERPINC1), and infiltration of leukocytes (APOA1, APOE, C3, PLG, KRT10) and neutrophils (C3, CFB, CFH, PLG). Up regulation of APOE, APOA1, APOH, GC and PLG in chagasic plasma was indicative of activation, binding and accumulation of macrophages in the disease state. Of the 19 differentially expressed inflammation-associated proteins, 11 proteins (APOE, C3, CFB, CFH, GSN, KRT10, SCG2, SERPINA1, SERPINC1, GC, and PLG) were carbonylated in chagasic plasma. […] Other proteins (APOE, C3, KRT3, and SCG2) were exposed to oxidation due to T. cruzi-induced, acute oxidative stress, but were normalized in expression and oxidation during the chronic phase.
Seventeen of the differentially expressed proteins in chagasic plasma, i.e., AFM, C4BPA, CACNA1D, DLGAP2, GC, KNG1, MUG1, MYLPF, MY05A, MY05B, PRPH, PZP, RAI14, and SCG2, were allotted to the lipid metabolism/molecular transport/small molecule biochemistry category (Table V) and functionally linked by IPA network analysis to lipid, fatty acid, and carbohydrate metabolism. A majority of the proteins in this category, i.e., ALB, APOA1, APOA4, APOE, APOH, C3, GC, GNAQ, MY05A, PLG, SCD2, SERPINA1, SERPINC1 and VIM, were linked to the synthesis, metabolism, transport, and modification of lipids and fatty acids, and to uptake and release or efflux of lipids, eicosanoids, and cholesterol. […]

Q: With `CC(C)(C)/[N+]([O-])=C/c1ccccc1` [PBN] as the molecule, how does the “oxidative modification of inflammation-associated plasma proteins” value (T. cruzi [1]) read?
A: prevented the oxidative modification of five of these proteins

Q: What about the “controlling parasite- and oxidative stress-induced pathology” value (T. cruzi [2]) of the same molecule?
A: beneficial effects

Q: And the “Spot# 106 Average Normalized Density × 100,000” value ([3]; RAP group (acute infection))?
A: 1.70

Q: And the “Spot# 106 Average Normalized Density × 100,000” value ([3]; RCP/RCB/RCPB groups (chronic infection))?
A: 6.94
